Assay results taken from patent US12617831B2 (UNIVERSITE D'ANGERS, priority 2019, dated 2026).
Like-named read-outs stand apart in the source and are kept apart here.

Assays:
[1] = tested on: ovariectomy-induced bone loss in mice; assay: Trabecular bone strength, compression test of second lumbar vertebra, ovariectomized mice; assay type: in vivo; settings: OVX mice, vs vehicle; GL-0001 25, GL-0007 25 and 100 nmoles/kg/day; zoledronic acid once 100 μg/kg
Method: At 16 weeks of age, ALZET osmotic pumps (model number 2006, Durect Corp., Cupertino, CA) filled with the below saline or peptide were implanted subcutaneously between the two scapula under general anesthesia in 32 mice. Successful filling of pumps was verified by weighting the pump before and after filling. At 20 weeks of age, ALZET osmotic pumps were replaced by similar pumps to ensure delivery for four new weeks. […] This dose and regimen of zoledronic acid was equivalent to the 5 mg infusion approved for the treatment of post-menopausal osteoporosis in humans. Compression experiments were performed on L2. Briefly, vertebral bodies were carefully dissected and glued with cyanoacrylate glue on a Plexiglas plate and then incubated in saline at 4° C. until use the next day. L2 vertebral bodies were compressed to failure at a displacement rate of 1 mm/min using an Instron 5942 device. Load and displacement of the upper plateau were recorded at a sampling rate of 100 Hz. Maximum load and stiffness were computerized from load-displacement curves.

[2] = tested on: ovariectomy-induced bone loss in mice; assay: Bone matrix composition by FTIRI at the femur midshaft, ovariectomized mice; assay type: in vivo; settings: OVX mice, cortical bone femur, vs vehicle
Method: At 16 weeks of age, ALZET osmotic pumps (model number 2006, Durect Corp., Cupertino, CA) filled with the below saline or peptide were implanted subcutaneously between the two scapula under general anesthesia in 32 mice. Successful filling of pumps was verified by weighting the pump before and after filling. At 20 weeks of age, ALZET osmotic pumps were replaced by similar pumps to ensure delivery for four new weeks. […] This dose and regimen of zoledronic acid was equivalent to the 5 mg infusion approved for the treatment of post-menopausal osteoporosis in humans. After three-point bending experiments, femurs were embedded undecalcified in pMMA at 4° C. One-micrometer cross-sectional sections of the midshaft femur were sandwiched between BaF2 optical windows and Fourier transform infrared imaging (FTIRI) assessment was performed in the posterior quadrant. FTIRI was performed with a vertex 70 spectrometer (Bruker, Ettlingen, Germany) interfaced with a Hyperion 3000 microscope and a focal plane array detector (64×64 pixels) covering a field of view of 180×180 μm. Nine field-of-view were stitched together to allow sufficient bone to be analyzed. Sections were scanned with a spectral resolution of 8 cm^-1 (spectral region 900-2000 cm^-1). Each spectrum was corrected for Mie scattering with the […]5 algorithm (kind gift of Prof Peter Gardner, University of Manchester, UK) prior to be subjected to pMMA subtraction. Evaluation of spectral images was done with a lab-made routine script in Matlab R2016b (The Mathworks, Natick, MA) as described in Aguado et al. (2017) Calcif Tissue Int 100:332-340. FTIR bone parameters ([…] (2012) Methods Mol Biol 816:517-525) calculated were: (1) phosphate/amide ratio (area of v1, v3 phosphate/area amide1); (2) acid phosphate content (intensity ratio 1127 cm^-1/1096 cm^-1) (Spevak et al. (2013) Calcif Tissue Int 92:418-428); (3) mineral crystallinity (intensity ratio 1030 cm^-1/1020 cm^-1), reflecting crystal size and perfection; […] (2001) J Bone Miner Res 16:893-900). For each of the compositional parameters, the mean and full width at half maximum of the pixel distribution (excluding the zero background values) were computed and represented as mean and heterogeneity.

[3] = tested on: MC3T3-E1 subclone 4 cells; assay type: cell-based, murine
Method: Briefly, MC3T3-E1 subclone 4 cells have been grown and propagated in α-MEM supplemented with 5% fetal bovine serum (FBS), 5% bovine calf serum (BCS), 100 U/mL penicillin, and 100 μg/mL streptomycin in a humidified atmosphere enriched with 5% CO2 at 37° C. […] This day was considered as day 1. The differentiation medium was replenished every two days. […] Cultures were rinsed at least six times with milliQ water, fixed in absolute ethanol, scrapped off the culture dish and transferred onto BaF2 windows where they were air-dried. Integrity of the collagen extracellular matrix was verified by comparing the obtained Fourier transform infrared spectrum with those of commercial collagen. Spectral analysis was performed using a Bruker Vertex 70 spectrometer (Bruker optics, Ettlingen, Germany) interfaced with a Bruker Hyperion 3000 infrared microscope equipped with a standard single element Mercury Cadmium Telluride (MCT) detector. Calibration of the infrared spectrometer is done once a week with a polystyrene film standard (Bruker optics). Infrared spectra were recorded at a resolution of 4 cm^-1, with an average of 32 scans in transmission mode. Background spectral images were collected under identical conditions from the same BaF2 windows at the beginning and end of each experiment to ensure instrument stability. At least 5 spectra were acquired for each condition and analyzed with a lab-made routine script (version 2.0) in Matlab R2016b (The Mathworks, Natick, MA). […] For GIP and GLP-2 dataset, the inventors used the collagen maturity data previously acquired and analyzed. First of all, collagen maturity obtained in control cultures, i.e. in the absence of double GIP/GLP-2 analogues, were averaged and subtracted to the all dataset. […] For each concentration of peptide, the mean, SD and number of events were computed. […] The GraphPad Prism analysis consisted in: […] Statistical Analysis […] Data are represented as mean±SD.

Murine Raw 264.7 cells = assay type: cell-based; settings: for IC50 computed from curve fitting of osteoclastogenesis vs. peptide concentration: Raw 264.7, RANKL 10 ng/ml, 110 h, * values determined from previous experiments
Method: Murine Raw 264.7 cells were grown and expanded in propagation medium containing Dulbecco's modified Eagle medium (DMEM-Gibco) supplemented with 10% fetal bovine serum (FBS-Lonza), 100 U/mL penicillin and 100 μg/mL streptomycin (Gibco) in a humidified atmosphere enriched with 5% CO2 at 37° C. The first passage after thawing Raw 264.7 cells was considered as passage 1. Cells were used up to passage 8. […] Cultures were rinsed three times in distilled water and the residual activity was inhibited by 4% NaF (Sigma-Aldrich) for 30 min. Cells were then rinsed in distilled water and allowed to dry. TRAcP positive cells, with more than three nuclei, were identified as osteoclasts. The number of newly generated osteoclasts was assessed using light microscopic examination by a histologist that was blinded to the treatment intervention. […] For each concentration of peptide, the mean, SD and number of events were computed.

CC[C@H](C)[C@H](NC(=O)[C@H](CO)NC(=O)[C@H](CCSC)NC(=O)[C@H](CC(=O)O)NC(=O)[C@H](CO)NC(=O)CNC(=O)[C@H](Cc1ccccc1)NC(=O)[C@H](CO)NC(=O)CNC(=O)[C@H](CCC(=O)O)NC(=O)CNC(=O)[C@@H](N)Cc1c[nH]cn1)C(=O)N[C@@H](C)C(=O)N[C@@H](CC(C)C)C(=O)N[C@@H](CC(=O)O)C(=O)N[C@@H](CCCCN)C(=O)N[C@@H](CC(C)C)C(=O)N[C@@H](C)C(=O)N[C@@H](C)C(=O)N[C@@H](CCCNC(=N)N)C(=O)N[C@@H](CC(=O)O)C(=O)N[C@@H](Cc1ccccc1)C(=O)N[C@H](C(=O)N[C@@H](CC(N)=O)C(=O)N[C@@H](Cc1c[nH]c2ccccc12)C(=O)N[C@@H](CC(C)C)C(=O)N[C@@H](CC(C)C)C(=O)N[C@@H](CCC(N)=O)C(=O)N[C@H](C(=O)N[C@@H](CCCCN)C(=O)N[C@H](C(=O)N[C@H](C(=O)N[C@@H](CC(=O)O)C(=O)O)[C@@H](C)O)[C@@H](C)CC)[C@@H](C)O)C(C)C [GL-0001]
bone stiffness, compression of second lumbar vertebra [1]: significantly reduced
increase in acid phosphate content heterogeneity ([2]; 25 nmoles/kg/day): 21%
increase in collagen maturity heterogeneity ([2]; 25 nmoles/kg/day): 28%
increase in mean collagen maturity ([2]; 25 nmoles/kg/day): 10%
Emax for dose-effect curves on collagen maturity ([3]; MC3T3-E1, day 14): 207.0%
EC50 ([3]; MC3T3-E1, day 14, mean ± SD of 5 individual experiments, read-out: EC50 for dose-effect curves on collagen maturity): 0.0262 ± 0.0171 nM
IC50 computed from curve fitting of osteoclastogenesis vs. peptide concentration (Murine Raw 264.7 cells): 0.0142 nM
EC50 (Murine Raw 264.7 cells; Raw 264.7, * data obtained in previous experiments, read-out: EC50 of inhibitory effect on osteoclastogenesis): 0.0142 nM

CC[C@H](C)[C@H](NC(=O)[C@H](CO)NC(=O)[C@H](Cc1ccccc1)NC(=O)[C@H](CC(=O)O)NC(=O)[C@H](CO)NC(=O)CNC(=O)[C@H](Cc1ccccc1)NC(=O)[C@H](CO)NC(=O)CNC(=O)[C@H](CCC(=O)O)NC(=O)CNC(=O)[C@@H](N)Cc1c[nH]cn1)C(=O)N[C@@H](C)C(=O)N[C@@H](CC(C)C)C(=O)N[C@@H](CC(=O)O)C(=O)N[C@@H](CCCCN)C(=O)N[C@@H](CC(C)C)C(=O)N[C@@H](C)C(=O)N[C@@H](C)C(=O)N[C@@H](CCCNC(=N)N)C(=O)N[C@@H](CC(=O)O)C(=O)N[C@@H](Cc1ccccc1)C(=O)N[C@H](C(=O)N[C@@H](CC(N)=O)C(=O)N[C@@H](Cc1c[nH]c2ccccc12)C(=O)N[C@@H](CC(C)C)C(=O)N[C@@H](CC(C)C)C(=O)N[C@@H](CCC(N)=O)C(=O)N[C@H](C(=O)N[C@@H](CCCCN)C(N)=O)[C@@H](C)O)C(C)C [GL-0007]
bone stiffness, compression of second lumbar vertebra [1]: significantly reduced
augmentation of acid phosphate content heterogeneity ([2]; 100 nmoles/kg/day): 18%
EC50 [3]: 0.0259 ± 0.0145 nM
Emax for dose-effect curves on collagen maturity ([3]; MC3T3-E1, day 14): 232.3%
EC50 (Murine Raw 264.7 cells): 0.0062 nM
IC50 computed from curve fitting of osteoclastogenesis vs. peptide concentration (Murine Raw 264.7 cells): 0.0062 nM
